In article PMC9728921, “Characterization of a KDM5 small molecule inhibitor with antiviral activity against hepatitis B virus” (PLOS ONE, 2022):
“Also recorded” adds a separate entry of the source.

Test system: H3K4me3:H3
Experiment: Global H3K4me3:H3 ratio by ELISA in HBV-infected PHH
Type: cell-based, human
Conditions: single pulse dose; day nine
Experimental: For the pulse dose regimen, medium containing compound was removed after two hours incubation and replaced with fresh maintenance medium every three to four days. Cells in the pulse dose experiment received only one dose of compound (Day = 0). Histones were enriched from tissue and PBMC samples using the AbCam total histone extraction kit (Cambridge, UK; ab113476) according to the manufacturer’s protocol after cell/tissue dissociation with an IKA T10 TURRAX homogenizer (Wilmington, NC; […] Histones were enriched from 500,000 to 750,000 PHH. PHH monolayers were washed once with cold (4°C) 1X DPBS (Dulbecco’s phosphate buffered saline; 21-031-CV, Corning Inc.). Cold triton extraction buffer (TEB): 1X DPBS, 0.5% triton X-100 (Sigma-Aldrich, T9284), 2 mM phenylmethylsulfonyl fluoride (PMSF; Thermo Fisher Scientific, 36978), was added to the cell monolayer at a density of 1 x 10^6 cells/mL. After 10-minute incubation in TEB at 4°C, the cell monolayer was scraped and cells were pelleted by centrifuged at 1200 rpm at 4°C for 10 minutes. […] Total protein concentration of all samples following histone enrichment was determined using a bicinchoninic acid (BCA) assay (Thermo Fisher Scientific; 23225). […] Absorbance of each well was measured at 450 nm within five minutes using a SpectraMax Plus 384 Microplate Reader (Molecular Devices; PLUS 384).

CCOC(=O)c1ccnc(CNCC(=O)N(CC)CCN(C)C)c1 [GS-5801]
H3K4me3:H3 level: almost back to baseline levels; also recorded: near baseline levels
